Measurements published in patent publication US10385103B2, “Cell-permeable (ICP)-SOCS3 recombinant protein and uses thereof” (CELLIVERY THERAPEUTICS, INC., priority 2014, dated 2019).

Tested on: RAW 264.7 cells
Assay: Quantitative cell-permeability of FITC-labeled aMTD- or rPeptide-fused CRA recombinant proteins (flow cytometry)
Assay type: cell-based
Conditions: for Relative Ratio to aMTD AVE: cell-permeability of rPeptide-fused CRA recombinant protein relative to average of 240 aMTDs
In short: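 Uptake of fluorescently labeled, peptide-fused cargo proteins was quantified by flow cytometry (Guava, Millipore) and analyzed in FlowJo software. RAW 264.7 cells received 10 μM FITC-labeled protein for 1 hour at 37° C., were rinsed three times with cold PBS, and were trypsinized with 0.25% tripsin/EDTA for 20 minutes at 37° C. to remove bound protein before measurement. Permeability was expressed relative to reference proteins.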

[1] = cell-permeability of aMTD-fused CRA recombinant protein relative to negative control (A: rP38)
[2] = cell-permeability of aMTD-fused CRA recombinant protein relative to reference CPP (B: MTM12)
[3] = cell-permeability of aMTD-fused CRA recombinant protein relative to reference CPP (C: MTD85)
[4] = cell-permeability relative to negative control rP38 (A type), aMTD-fused CRA recombinant protein, 10 μM FITC-labeled, 1 hour, 37° C., RAW 264.7 cells
[5] = cell-permeability relative to reference CPP MTD85 (C type), aMTD-fused CRA recombinant protein, 10 μM FITC-labeled, 1 hour, 37° C., RAW 264.7 cells
[6] = cell-permeability relative to reference CPP MTM12 (B type), aMTD-fused CRA recombinant protein, 10 μM FITC-labeled, 1 hour, 37° C., RAW 264.7 cells
[7] = 10 μM FITC-labeled, 1 hour, 37° C., RAW 264.7 cells

Substance	Relative Ratio (Fold) A [1]	Relative Ratio (Fold) B [2]	Relative Ratio (Fold) C [3]	Relative Ratio (Fold) A [4]	Relative Ratio (Fold) C [5]	Relative Ratio (Fold) B [6]	Relative Ratio to aMTD AVE [7]
444 (LAAALVPVALVP; Amino acid Sequence of aMTD444) [compound 444]	8.1 Fold	5.4 Fold	2.7 Fold	–	–	–	–
445 (ALAALVPALVVP; Amino acid Sequence of aMTD445) [compound 445]	–	–	–	6.9 Fold	2.3 Fold	4.6 Fold	–
461 (IAAVIVPAVALP; Amino acid Sequence of aMTD461) [compound 461]	19.0 Fold	12.7 Fold	6.4 Fold	–	–	–	–
462 (IAAVLVPAVALP; Amino acid Sequence of aMTD462) [compound 462]	–	–	–	6.3 Fold	2.1 Fold	4.2 Fold	–
463 (AVAILVPLLAAP; Amino acid Sequence of aMTD463) [compound 463]	17.6 Fold	11.7 Fold	5.9 Fold	–	–	–	–
464 (AVVILVPLAAAP; Amino acid Sequence of aMTD464) [compound 464]	22.3 Fold	14.9 Fold	7.5 Fold	–	–	–	–
465 (IAAVIVPVAALP; Amino acid Sequence of aMTD465) [compound 465]	7.4 Fold	4.9 Fold	2.5 Fold	–	–	–	–
466 (IIAAAAPLAIIP; Amino acid Sequence of rPeptide ID 466) [compound 466]	–	–	–	–	–	–	0.52
482 (ILAVAAIPVAVP; Amino acid Sequence of aMTD482) [compound 482]	15.8 Fold	10.6 Fold	5.3 Fold	–	–	–	–
483 (ILAAAIIPAALP; Amino acid Sequence of aMTD483) [compound 483]	–	–	–	6.8 Fold	2.3 Fold	4.5 Fold	–
484 (LAVVLAAPAIVP; Amino acid Sequence of aMTD484) [compound 484]	15.8 Fold	10.4 Fold	5.3 Fold	–	–	–	–
485 (AILAAIVPLAVP; Amino acid Sequence of aMTD485) [compound 485]	–	–	–	6.8 Fold	2.3 Fold	4.5 Fold	–
501 (VIVALAVPALAP; Amino acid Sequence of aMTD501) [compound 501]	21.5 Fold	14.4 Fold	7.2 Fold	–	–	–	–
502 (AIVALAVPVLAP; Amino acid Sequence of aMTD502) [compound 502]	–	–	–	5.6 Fold	1.9 Fold	3.7 Fold	–
504 (LIVALAVPALAP; Amino acid Sequence of aMTD504) [compound 504]	–	–	–	3.3 Fold	1.1 Fold	2.2 Fold	–
505 (AIIIVIAPAAAP; Amino acid Sequence of aMTD505) [compound 505]	12.4 Fold	8.3 Fold	4.2 Fold	–	–	–	–
507 (VAIALAPVVVAP; Amino acid Sequence of aMTD907) [compound 507]	8.1 Fold	5.4 Fold	2.8 Fold	–	–	–	–
521 (LAALIVVPAVAP; Amino acid Sequence of aMTD521) [compound 521]	9.4 Fold	6.3 Fold	3.2 Fold	–	–	–	–
522 (ALLVIAVPAVAP; Amino acid Sequence of aMTD522) [compound 522]	22.7 Fold	15.2 Fold	7.7 Fold	–	–	–	–
524 (AVALIVVPALAP; Amino acid Sequence of aMTD524) [compound 524]	18.3 Fold	12.2 Fold	6.2 Fold	–	–	–	–
525 (ALAIVVAPVAVP; Amino acid Sequence of aMTD525) [compound 525]	13.8 Fold	9.2 Fold	4.7 Fold	–	–	–	–
541 (LLALIIAPAAAP; Amino acid Sequence of aMTD541) [compound 541]	14.8 Fold	9.9 Fold	5.0 Fold	–	–	–	–

Substance	Relative Ratio (Fold) A [1]	Relative Ratio (Fold) B [2]	Relative Ratio (Fold) C [3]	Relative Ratio (Fold) A [4]	Relative Ratio (Fold) C [5]	Relative Ratio (Fold) B [6]	Relative Ratio to aMTD AVE [7]
542 (ALALIIVPAVAP; Amino acid Sequence of aMTD542) [compound 542]	16.2 Fold	10.8 Fold	5.5 Fold	–	–	–	–
543 (LLAALIAPAALP; Amino acid Sequence of aMTD543) [compound 543]	11.7 Fold	7.9 Fold	4.0 Fold	–	–	–	–
544 (IVALIVAPAAVP; Amino acid Sequence of aMTD544) [compound 544]	23.4 Fold	15.6 Fold	7.9 Fold	–	–	–	–
545 (VVLVLAAPAAVP; Amino acid Sequence of aMTD545) [compound 545]	34.6 Fold	23.1 Fold	11.7 Fold	–	–	–	–
561 (AAVAIVLPAVVP; Amino acid Sequence of aMTD561) [compound 561]	–	–	–	3.9 Fold	1.3 Fold	2.6 Fold	–
562 (ALIAAIVPALVP; Amino acid Sequence of aMTD562) [compound 562]	32.7 Fold	21.8 Fold	11.0 Fold	–	–	–	–
564 (VAIALIVPALAP; Amino acid Sequence of aMTD564) [compound 564]	43.6 Fold	29.1 Fold	14.7 Fold	–	–	–	–
565 (VAIVLVAPAVAP; Amino acid Sequence of aMTD565) [compound 565]	7.5 Fold	5.0 Fold	2.5 Fold	–	–	–	–
582 (VAVALIVPALAP; Amino acid Sequence of aMTD582) [compound 582]	30.6 Fold	20.4 Fold	10.3 Fold	–	–	–	–
583 (AVILALAPIVAP; Amino acid Sequence of aMTD583) [compound 583]	–	–	–	7.3 Fold	2.4 Fold	4.8 Fold	–
585 (ALIVAIAPALVP; Amino acid Sequence of aMTD585) [compound 585]	–	–	–	6.6 Fold	2.2 Fold	4.4 Fold	–
601 (AAILIAVPIAAP; Amino acid Sequence of aMTD601) [compound 601]	26.8 Fold	17.9 Fold	9.0 Fold	–	–	–	–
602 (VIVALAAPVLAP; Amino acid Sequence of aMTD602) [compound 602]	9.9 Fold	5.8 Fold	3.4 Fold	–	–	–	–
603 (VLVALAAPVIAP; Amino acid Sequence of aMTD603) [compound 603]	54.1 Fold	36.1 Fold	18.2 Fold	–	–	–	–
604 (VALIAVAPAVVP; Amino acid Sequence of aMTD604) [compound 604]	–	–	–	4.3 Fold	1.5 Fold	2.5 Fold	–
605 (VIAAVLAPVAVP; Amino acid Sequence of aMTD605) [compound 605]	11.0 Fold	7.4 Fold	3.7 Fold	–	–	–	–
622 (ALIVLAAPVAVP; Amino acid Sequence of aMTD622) [compound 622]	10.6 Fold	7.1 Fold	3.6 Fold	10.6 Fold	3.6 Fold	7.1 Fold	–
623 (VAAAIALPAIVP; Amino acid Sequence of aMTD623) [compound 623]	–	–	–	0.8 Fold	0.3 Fold	0.6 Fold	–
625 (ILAAAAAPLIVP; Amino acid Sequence of aMTD625) [compound 625]	20.3 Fold	13.9 Fold	7.0 Fold	–	–	–	–
635 (GSTGGSQQNNQY; Amino acid Sequence of rPeptide ID 635) [compound 635]	–	–	–	–	–	–	0.07
643 (LALVLAAPAIVP; Amino acid Sequence of aMTD643) [compound 643]	11.8 Fold	7.9 Fold	4.0 Fold	–	–	–	–
